Results reported in US11884671B2, “Purinone compounds and their use in treating cancer” (ASTRAZENECA AB, priority 2018, dated 2024).

Legend:
DNAPK = DNAPK (Homo sapiens (Human), UniProt P78527); assay: DNAPK cellular potency assay (DNA-PK cell), pS2056-DNAPK ELISA in irradiated A549 cells; format: cell-based; details: 8 Gy radiation, arithmetic mean of two or more experiments, read-out: DNA-PK cell pIC50 (converted)
Experimental: The DNAPK cell ELISA assay was performed in the A549 cell line. A549 cells were cultured in cell media composed of MEM-F12 (Minimum Essential Medium F12 Sigma #D6421), 10% (v/v) Foetal Calf Serum and 1% (v/v) 200 mM L-Glutamine. […] The following day the Greiner ELISA plates were washed 3× with PBS-T and blocked with 3% BSA/PBS for 2 h, before a further 3× wash with PBS-T.
The cell plates were then incubated for 1 h at 37° C. before receiving a radiation dose of 8 Gy (XRAD 320, table height 65). The cells were incubated for a further 1 h before removal of cell media. […] Cell lysates ([…]) were transferred to the DNAPK antibody-coated ELISA plates using a CyBio Felix liquid handling platform, and ELISA plates were incubated at 4° C. overnight.
The following day, ELISA plates were washed 3× with PBS-T and dispensed with in-house pS2056-DNAPK antibody (0.5 μg/mL in 3% BSA/PBS) at 20 ul/well.
The fluorescence intensity of individual wells was determined using a PerkinElmer EnVision plate reader.
Data was analysed and IC50 values were calculated using Genedata Screener® software (Genedata, Inc., Basel, Switzerland).

TTK = TTK (Homo sapiens (Human), UniProt P33981); assay: TTK enzyme assay (LanthaScreen Eu Kinase Binding); details: arithmetic mean of two or more experiments
Experimental: The inhibitory activity of compounds against TTK was determined in a LanthaScreen® Eu Kinase Binding assay run by ThermoFisher Scientific as part of their SelectScreen® Biochemical Kinase Profiling Service. The LanthaScreen® Eu Kinase Binding assay format uses binding of an Alexa Fluor® conjugate or “tracer” to a kinase, which is detected by addition of a Eu-labeled anti-tag antibody. […] The degree of FRET measured in the assay is used to determine the binding of a compound.
(§1) 10 point three-fold dilution compound concentration-response curves, with a top concentration of 10 μM were generated from 10 mM stocks of compound solubilised in DMSO. All assays were performed in white, low volume Greiner 384-well plates (cat. #784207, Greiner), in a total reaction volume of 16 μL and 1% (v/v) final DMSO concentration. […] Plates were then read using a fluorescence plate reader. IC50 values were calculated using XLfit software (IDBS Ltd, Surrey, UK), with the curve fit to model number 205 (sigmoidal dose-response model).

JAK1 = JAK1 (Homo sapiens (Human), UniProt P23458); assay: JAK1 enzyme assay (Z'-LYTE); format: biochemical; details: 75 μM ATP; arithmetic mean of two or more experiments
Experimental: (§2) The inhibitory activity of compounds against AURKA, AURKB, JAK1, JAK2 and JAK3 was determined in Z′-LYTE® assays run by ThermoFisher Scientific as part of their SelectScreen® Biochemical Kinase Profiling Service. The Z′-LYTE® biochemical assay format employs a fluorescence-based, coupled-enzyme format and is based on the differential sensitivity of phosphorylated and non-phosphorylated peptides to proteolytic cleavage. The peptide substrate is labeled with two fluorophores—one at each end—that make up a FRET pair. In the primary reaction, the kinase transfers the gamma-phosphate of ATP to a single tyrosine, serine or threonine residue in a synthetic FRET-peptide. In the secondary reaction, a site-specific protease recognises and cleaves non-phosphorylated FRET-peptides. Phosphorylation of FRET-peptides suppresses cleavage by the Development Reagent. Cleavage disrupts FRET between the donor (i.e., coumarin) and acceptor (i.e., fluorescein) fluorophores on the FRET-peptide, whereas uncleaved, phosphorylated FRET-peptides maintain FRET. A ratiometric method, which calculates the ratio (the Emission Ratio) of donor emission to acceptor emission after excitation of the donor fluorophore at 400 nm, is used to quantitate reaction progress. Both cleaved and uncleaved FRET-peptides contribute to the fluorescence signals and therefore to the Emission Ratio. The extent of phosphorylation of the FRET-peptide can be calculated from the Emission Ratio.
as §1, with “black, non-binding,” for “white,”, “Corning” for “Greiner”, “#4514, Corning),” for “#784207, Greiner),”, “10” for “16”, “The kinase reaction was” for “Plates were”, “quenched by the addition of 5 μL of Development Reagent (ThermoFisher Scientific proprietary). […]” for “read using a fluorescence plate reader.”
JAK1: The 2×JAK/Tyr 06 (ThermoFisher Scientific proprietary) mixture was prepared in 50 mM HEPES pH 6.5, 0.01% BRIJ-35, 10 mM MgCl2, 1 mM EGTA, 0.02% NaN3. […] After the 1 hour Kinase Reaction incubation, 5 μL of a 1:128 dilution of Development Reagent was added.

JAK2 = JAK2 (Homo sapiens (Human), UniProt O60674); assay: JAK2 enzyme assay (Z'-LYTE); format: biochemical; details: 25 μM ATP; arithmetic mean of two or more experiments
Experimental: as §2
as §1, with “black, non-binding,” for “white,”, “Corning” for “Greiner”, “#4514, Corning),” for “#784207, Greiner),”, “10” for “16”, “The kinase reaction was” for “Plates were”, “quenched by the addition of 5 μL of Development Reagent (ThermoFisher Scientific proprietary). […]” for “read using a fluorescence plate reader.”
JAK2: The 2×JAK2/Tyr 06 (ThermoFisher Scientific proprietary) mixture was prepared in 50 mM HEPES pH 7.5, 0.01% BRIJ-35, 10 mM MgCl2, 1 mM EGTA. […] After the 1 hour Kinase Reaction incubation, 5 μL of a 1:128 dilution of Development Reagent was added.

JAK3 = JAK3 (Homo sapiens (Human), UniProt P52333); assay: JAK3 enzyme assay (Z'-LYTE); format: biochemical; details: 10 μM ATP; arithmetic mean of two or more experiments
Experimental: as §2
as §1, with “black, non-binding,” for “white,”, “Corning” for “Greiner”, “#4514, Corning),” for “#784207, Greiner),”, “10” for “16”, “The kinase reaction was” for “Plates were”, “quenched by the addition of 5 μL of Development Reagent (ThermoFisher Scientific proprietary). […]” for “read using a fluorescence plate reader.”
JAK3: The 2×JAK3/Tyr 06 (ThermoFisher Scientific proprietary) mixture was prepared in 50 mM HEPES pH 7.5. 0.01% BRIJ-35, 10 mM MgCl2, 1 mM EGTA. […] After the 1 hour Kinase Reaction incubation, 5 μL of a 1:128 dilution of Development Reagent was added.

AURKA (Aurora A) = AURKA (Aurora A) (Homo sapiens (Human), UniProt O14965); assay: Aurora-A enzyme assay (Z'-LYTE); format: biochemical; details: 10 μM ATP; arithmetic mean of two or more experiments
Experimental: as §2
as §1, with “black, non-binding,” for “white,”, “Corning” for “Greiner”, “#4514, Corning),” for “#784207, Greiner),”, “10” for “16”, “The kinase reaction was” for “Plates were”, “quenched by the addition of 5 μL of Development Reagent (ThermoFisher Scientific proprietary). […]” for “read using a fluorescence plate reader.”
Aurora A (AurA): The 2×AURKA (Aurora A)/Ser/Thr 01 (ThermoFisher Scientific proprietary) mixture was prepared in 50 mM HEPES pH 7.5, 0.01% BRIJ-35, 10 mM MgCl2, 1 mM EGTA. […] After the 1 hour Kinase Reaction incubation, 5 μL of a 1:4096 dilution of Development Reagent was added.

AURKB (Aurora B) = AURKB (Aurora B) (Homo sapiens (Human), UniProt Q96GD4); assay: Aurora-B enzyme assay (Z'-LYTE); format: biochemical; details: 75 μM ATP; arithmetic mean of two or more experiments
Experimental: as §2
as §1, with “black, non-binding,” for “white,”, “Corning” for “Greiner”, “#4514, Corning),” for “#784207, Greiner),”, “10” for “16”, “The kinase reaction was” for “Plates were”, “quenched by the addition of 5 μL of Development Reagent (ThermoFisher Scientific proprietary). […]” for “read using a fluorescence plate reader.”
Aurora B (AurB): The 2×AURKB (Aurora B)/Ser/Thr 01 (ThermoFisher Scientific proprietary) mixture was prepared in 50 mM HEPES pH 7.5, 0.01% BRIJ-35, 10 mM MgCl2, 1 mM EGTA. […] After the 1 hour Kinase Reaction incubation, 5 μL of a 1:4096 dilution of Development Reagent was added.

Discrete PK Rat = format: in vivo, han wistar rats; details: Han Wistar, plasma, iv, read-out: volume of distribution (V)
Discrete PK Dog = details: beagle, iv, 0.5 mg/kg

Chain of JAK3 (P52333 whole entry): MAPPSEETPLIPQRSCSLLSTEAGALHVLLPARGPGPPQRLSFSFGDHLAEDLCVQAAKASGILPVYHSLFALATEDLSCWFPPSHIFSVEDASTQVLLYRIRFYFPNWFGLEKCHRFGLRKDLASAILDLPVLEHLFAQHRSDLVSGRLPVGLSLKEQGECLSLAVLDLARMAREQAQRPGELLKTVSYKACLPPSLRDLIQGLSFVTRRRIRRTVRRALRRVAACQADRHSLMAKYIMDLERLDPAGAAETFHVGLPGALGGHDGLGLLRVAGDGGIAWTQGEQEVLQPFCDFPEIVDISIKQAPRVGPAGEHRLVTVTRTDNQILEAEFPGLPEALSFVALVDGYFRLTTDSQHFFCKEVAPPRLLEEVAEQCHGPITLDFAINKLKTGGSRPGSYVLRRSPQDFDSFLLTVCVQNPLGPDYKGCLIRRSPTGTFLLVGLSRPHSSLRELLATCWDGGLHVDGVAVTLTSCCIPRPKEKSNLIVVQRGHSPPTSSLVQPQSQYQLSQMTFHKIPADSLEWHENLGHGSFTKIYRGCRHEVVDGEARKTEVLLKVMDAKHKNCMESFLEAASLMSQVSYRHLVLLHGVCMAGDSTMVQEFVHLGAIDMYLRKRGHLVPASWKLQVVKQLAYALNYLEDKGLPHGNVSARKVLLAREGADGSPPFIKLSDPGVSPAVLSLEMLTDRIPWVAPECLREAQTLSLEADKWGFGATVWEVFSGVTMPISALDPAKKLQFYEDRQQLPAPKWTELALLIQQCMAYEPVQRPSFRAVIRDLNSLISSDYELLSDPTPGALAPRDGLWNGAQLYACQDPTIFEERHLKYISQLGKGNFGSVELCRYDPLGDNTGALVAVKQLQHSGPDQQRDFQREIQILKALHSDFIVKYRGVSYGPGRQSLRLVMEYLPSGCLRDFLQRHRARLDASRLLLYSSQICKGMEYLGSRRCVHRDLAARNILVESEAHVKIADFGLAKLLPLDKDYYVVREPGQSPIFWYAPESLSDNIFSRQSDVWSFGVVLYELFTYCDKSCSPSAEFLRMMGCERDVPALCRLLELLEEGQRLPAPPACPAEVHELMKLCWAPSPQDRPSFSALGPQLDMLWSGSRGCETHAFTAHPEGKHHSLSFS
Chain of JAK2 (O60674 whole entry): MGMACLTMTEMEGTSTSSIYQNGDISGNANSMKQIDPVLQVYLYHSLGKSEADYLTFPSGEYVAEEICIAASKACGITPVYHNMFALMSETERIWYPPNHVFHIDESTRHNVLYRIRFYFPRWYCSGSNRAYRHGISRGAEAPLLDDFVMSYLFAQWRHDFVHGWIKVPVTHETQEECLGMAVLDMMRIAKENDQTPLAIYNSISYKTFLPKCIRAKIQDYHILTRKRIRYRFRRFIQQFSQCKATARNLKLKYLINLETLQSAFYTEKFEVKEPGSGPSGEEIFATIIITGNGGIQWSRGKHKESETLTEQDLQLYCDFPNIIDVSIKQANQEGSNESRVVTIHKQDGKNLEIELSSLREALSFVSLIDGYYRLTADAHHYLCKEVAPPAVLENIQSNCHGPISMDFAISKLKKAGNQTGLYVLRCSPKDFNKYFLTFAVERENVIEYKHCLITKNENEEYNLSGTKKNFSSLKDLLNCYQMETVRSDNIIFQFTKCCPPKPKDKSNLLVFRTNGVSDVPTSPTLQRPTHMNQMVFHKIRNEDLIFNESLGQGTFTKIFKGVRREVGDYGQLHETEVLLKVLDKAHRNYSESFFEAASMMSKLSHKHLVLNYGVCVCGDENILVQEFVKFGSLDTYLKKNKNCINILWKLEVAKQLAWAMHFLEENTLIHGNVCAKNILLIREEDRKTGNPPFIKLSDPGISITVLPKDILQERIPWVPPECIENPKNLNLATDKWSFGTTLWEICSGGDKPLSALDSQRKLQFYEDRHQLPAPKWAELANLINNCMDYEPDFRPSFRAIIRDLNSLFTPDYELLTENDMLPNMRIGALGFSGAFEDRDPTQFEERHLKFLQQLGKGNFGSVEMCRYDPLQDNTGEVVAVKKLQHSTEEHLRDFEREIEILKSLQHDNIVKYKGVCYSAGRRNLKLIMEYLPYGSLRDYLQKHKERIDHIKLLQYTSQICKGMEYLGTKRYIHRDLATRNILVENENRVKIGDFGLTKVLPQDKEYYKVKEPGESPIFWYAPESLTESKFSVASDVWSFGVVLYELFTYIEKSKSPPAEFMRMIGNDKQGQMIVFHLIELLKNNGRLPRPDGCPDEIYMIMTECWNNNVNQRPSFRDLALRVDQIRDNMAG
Chain of AURKB (Aurora B) (Q96GD4 whole entry): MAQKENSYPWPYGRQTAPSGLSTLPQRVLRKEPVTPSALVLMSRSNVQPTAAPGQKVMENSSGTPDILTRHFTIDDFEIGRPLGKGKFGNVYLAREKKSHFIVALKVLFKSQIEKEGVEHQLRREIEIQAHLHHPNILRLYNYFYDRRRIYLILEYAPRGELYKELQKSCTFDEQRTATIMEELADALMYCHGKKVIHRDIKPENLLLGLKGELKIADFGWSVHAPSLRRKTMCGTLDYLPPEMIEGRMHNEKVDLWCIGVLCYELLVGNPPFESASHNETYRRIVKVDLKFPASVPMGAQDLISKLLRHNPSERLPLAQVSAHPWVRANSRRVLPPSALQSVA
Chain of JAK1 (P23458 whole entry): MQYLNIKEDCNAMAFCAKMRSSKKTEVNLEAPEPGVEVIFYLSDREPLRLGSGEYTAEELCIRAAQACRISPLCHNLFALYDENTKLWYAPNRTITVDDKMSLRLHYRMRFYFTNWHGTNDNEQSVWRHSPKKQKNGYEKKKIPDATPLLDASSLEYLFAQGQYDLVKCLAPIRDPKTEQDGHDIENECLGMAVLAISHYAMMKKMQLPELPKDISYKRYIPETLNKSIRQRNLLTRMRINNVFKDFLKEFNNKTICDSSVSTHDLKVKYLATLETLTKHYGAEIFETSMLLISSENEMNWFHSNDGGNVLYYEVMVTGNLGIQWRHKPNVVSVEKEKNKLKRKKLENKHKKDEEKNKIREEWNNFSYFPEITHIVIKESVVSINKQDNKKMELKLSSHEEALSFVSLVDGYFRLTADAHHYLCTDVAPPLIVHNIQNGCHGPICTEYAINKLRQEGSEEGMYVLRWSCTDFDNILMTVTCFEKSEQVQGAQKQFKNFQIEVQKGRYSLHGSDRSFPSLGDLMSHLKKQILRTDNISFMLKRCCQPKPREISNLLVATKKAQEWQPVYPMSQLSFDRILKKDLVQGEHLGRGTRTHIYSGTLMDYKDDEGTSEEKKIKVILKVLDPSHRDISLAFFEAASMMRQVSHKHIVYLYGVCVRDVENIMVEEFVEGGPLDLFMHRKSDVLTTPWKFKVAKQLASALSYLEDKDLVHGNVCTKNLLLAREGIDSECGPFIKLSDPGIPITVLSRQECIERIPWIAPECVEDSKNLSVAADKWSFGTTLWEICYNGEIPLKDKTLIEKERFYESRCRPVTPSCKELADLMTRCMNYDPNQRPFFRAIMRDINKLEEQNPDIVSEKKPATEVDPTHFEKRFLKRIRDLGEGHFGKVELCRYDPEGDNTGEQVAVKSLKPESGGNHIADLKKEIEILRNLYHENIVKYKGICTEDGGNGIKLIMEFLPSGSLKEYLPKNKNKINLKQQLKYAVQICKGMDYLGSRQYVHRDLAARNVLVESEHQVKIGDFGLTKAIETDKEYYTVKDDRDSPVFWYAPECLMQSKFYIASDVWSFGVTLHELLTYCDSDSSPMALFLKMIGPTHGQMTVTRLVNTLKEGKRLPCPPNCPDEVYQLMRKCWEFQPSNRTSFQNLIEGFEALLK
Chain of TTK (P33981 whole entry): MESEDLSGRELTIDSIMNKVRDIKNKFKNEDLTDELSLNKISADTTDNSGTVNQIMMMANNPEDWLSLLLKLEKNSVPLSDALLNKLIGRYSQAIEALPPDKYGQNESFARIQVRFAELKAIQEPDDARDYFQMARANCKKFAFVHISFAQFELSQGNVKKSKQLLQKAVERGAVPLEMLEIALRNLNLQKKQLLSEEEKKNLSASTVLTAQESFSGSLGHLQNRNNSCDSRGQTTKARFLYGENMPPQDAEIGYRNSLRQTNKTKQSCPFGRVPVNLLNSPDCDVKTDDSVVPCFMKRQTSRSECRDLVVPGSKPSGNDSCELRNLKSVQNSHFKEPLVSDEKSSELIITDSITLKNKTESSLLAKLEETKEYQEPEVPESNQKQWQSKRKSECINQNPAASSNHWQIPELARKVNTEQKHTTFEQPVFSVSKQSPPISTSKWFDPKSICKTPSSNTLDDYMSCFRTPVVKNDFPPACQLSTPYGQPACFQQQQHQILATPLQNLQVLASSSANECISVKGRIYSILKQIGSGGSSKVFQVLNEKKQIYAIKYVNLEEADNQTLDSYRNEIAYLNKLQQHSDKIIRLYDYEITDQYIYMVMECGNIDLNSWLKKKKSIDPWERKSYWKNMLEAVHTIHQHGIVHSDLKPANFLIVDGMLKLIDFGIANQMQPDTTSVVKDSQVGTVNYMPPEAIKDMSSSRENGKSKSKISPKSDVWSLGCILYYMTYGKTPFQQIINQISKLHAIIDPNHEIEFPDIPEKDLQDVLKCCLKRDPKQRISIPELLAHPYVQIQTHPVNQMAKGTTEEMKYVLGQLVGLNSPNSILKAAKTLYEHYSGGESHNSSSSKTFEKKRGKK
Chain of AURKA (Aurora A) (O14965 whole entry): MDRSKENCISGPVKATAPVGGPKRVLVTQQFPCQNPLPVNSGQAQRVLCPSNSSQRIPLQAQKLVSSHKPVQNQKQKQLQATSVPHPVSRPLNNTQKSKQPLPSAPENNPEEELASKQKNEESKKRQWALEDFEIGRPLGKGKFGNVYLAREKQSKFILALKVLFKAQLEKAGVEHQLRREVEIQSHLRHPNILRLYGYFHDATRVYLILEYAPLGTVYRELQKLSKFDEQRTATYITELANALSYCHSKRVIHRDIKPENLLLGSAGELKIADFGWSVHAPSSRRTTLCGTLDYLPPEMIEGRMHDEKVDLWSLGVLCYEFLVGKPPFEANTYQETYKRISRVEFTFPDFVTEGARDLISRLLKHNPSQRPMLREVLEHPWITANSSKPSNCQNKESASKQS

Cc1cc2ncccc2cc1Nc1ncc2c(n1)n([C@H]1CC[C@@](C)(O)CC1)c(=O)n2C [Example 14, 9-((1s,4s)-4-hydroxy-4-methylcyclohexyl)-7-methyl-2-((7-methylquinolin-6-yl)amino)-7,9-dihydro-8H-purin-8-one]
IC50 (DNAPK): 0.01 µM

Cc1cc2ncccc2cc1Nc1ncc2c(n1)n([C@H]1CC[C@](C)(O)CC1)c(=O)n2C [Example 15, 9-((1r,4r)-4-hydroxy-4-methylcyclohexyl)-7-methyl-2-((7-methylquinolin-6-yl)amino)-7,9-dihydro-8H-purin-8-one]
IC50 (DNAPK): 0.0158 µM

Cc1cc2nnccc2cc1Nc1ncc2c(n1)n([C@H]1CC[C@@](C)(O)CC1)c(=O)n2C [Example 16, 9-((1s,4s)-4-hydroxy-4-methylcyclohexyl)-7-methyl-2-((7-methylcinnolin-6-yl)amino)-7,9-dihydro-8H-purin-8-one]
IC50 (DNAPK): 0.0158 µM

Cc1cc2nnccc2cc1Nc1ncc2c(n1)n([C@H]1CC[C@](C)(O)CC1)c(=O)n2C [Example 17, 9-((1r,4r)-4-hydroxy-4-methylcyclohexyl)-7-methyl-2-((7-methylcinnolin-6-yl)amino)-7,9-dihydro-8H-purin-8-one]
IC50 (DNAPK): 0.1 µM

Cc1cc2nnccc2cc1Nc1ncc2c(n1)n(C1CCOCC1)c(=O)n2C [Example 29, 7-methyl-2-((7-methylcinnolin-6-yl)amino)-9-(tetrahydro-2H-pyran-4-yl)-7,9-dihydro-8H-purin-8-one]
TTK enz pIC50 (TTK): 6.4 | JAK1 enz pIC50 (JAK1): <5 | JAK2 enz pIC50 (JAK2): <5 | JAK3 enz pIC50 (JAK3): <5 | AurA enz pIC50 (AURKA (Aurora A)): <5 | AurB enz pIC50 (AURKB (Aurora B)): <5

Cc1cc2ncccc2cc1Nc1ncc2c(n1)n(C1CCOCC1)c(=O)n2C [Example 30, 7-methyl-2-((7-methylquinolin-6-yl)amino)-9-(tetrahydro-2H-pyran-4-yl)-7,9-dihydro-8H-purin-8-one]
TTK enz pIC50 (TTK): 6.4 | JAK1 enz pIC50 (JAK1): <5 | JAK2 enz pIC50 (JAK2): <5 | JAK3 enz pIC50 (JAK3): <5 | AurA enz pIC50 (AURKA (Aurora A)): <5 | AurB enz pIC50 (AURKB (Aurora B)): <5

Cc1cc2ncccc2cc1Nc1ncc2c(n1)n([C@@H]1CCN(C)C1)c(=O)n2C [Example 41, (R)-7-methyl-9-(1-methylpyrrolidin-3-yl)-2-((7-methylquinolin-6-yl)amino)-7,9-dihydro-8H-purin-8-one]
TTK enz pIC50 (TTK): <5.1 | JAK1 enz pIC50 (JAK1): <5 | JAK2 enz pIC50 (JAK2): <5 | JAK3 enz pIC50 (JAK3): <5 | AurA enz pIC50 (AURKA (Aurora A)): <5 | AurB enz pIC50 (AURKB (Aurora B)): <5

Cc1cc2ncccc2cc1Nc1ncc2c(n1)n([C@H]1CCN(C)C1)c(=O)n2C [Example 42, (S)-7-methyl-9-(1-methylpyrrolidin-3-yl)-2-((7-methylquinolin-6-yl)amino)-7,9-dihydro-8H-purin-8-one]
TTK enz pIC50 (TTK): <5.1 | JAK1 enz pIC50 (JAK1): <5 | JAK2 enz pIC50 (JAK2): <5 | JAK3 enz pIC50 (JAK3): <5 | AurA enz pIC50 (AURKA (Aurora A)): <5 | AurB enz pIC50 (AURKB (Aurora B)): <5

Cc1cc2nnccc2cc1Nc1ncc2c(n1)n(C1CCN(C)CC1)c(=O)n2C [Example 43, 7-methyl-2-((7-methylcinnolin-6-yl)amino)-9-(1-methylpiperidin-4-yl)-7,9-dihydro-8H-purin-8-one]
TTK enz pIC50 (TTK): <5 | JAK1 enz pIC50 (JAK1): <5 | JAK2 enz pIC50 (JAK2): <5 | JAK3 enz pIC50 (JAK3): <5 | AurA enz pIC50 (AURKA (Aurora A)): <5 | AurB enz pIC50 (AURKB (Aurora B)): <5

Cc1cc2ncccc2cc1Nc1ncc2c(n1)n(C1CCN(C)CC1)c(=O)n2C [Example 44, 7-methyl-9-(1-methylpiperidin-4-yl)-2-((7-methylquinolin-6-yl)amino)-7,9-dihydro-8H-purin-8-one]
Vd (Discrete PK Rat): 3.4 L/kg | Vd (Discrete PK Dog; plasma): 7.8 L/kg

Cc1cc2ncccc2cc1Nc1ncc2c(n1)n([C@@H]1CNC[C@H]1F)c(=O)n2C [Example 52, 9-((3R,4R)-4-fluoropyrrolidin-3-yl)-7-methyl-2-((7-methylquinolin-6-yl)amino)-7,9-dihydro-8H-purin-8-one]
Vd (Discrete PK Rat): 1.65 L/kg | Vd (Discrete PK Dog; in vivo): 5.4 L/kg
